Experimental findings from paper PMC4448982, “LP-925219 maximizes urinary glucose excretion in mice by inhibiting both renal SGLT1 and SGLT2” (Pharmacology Research & Perspectives, 2015) are described below.

In one experiment the target is T1, rat SGLT1 (Rattus norvegicus, UniProt P53790).
T1 construct: expressed in transfected cells; host or cells: HEK293 (per abstract)
T1 sequence (P53790 1-665): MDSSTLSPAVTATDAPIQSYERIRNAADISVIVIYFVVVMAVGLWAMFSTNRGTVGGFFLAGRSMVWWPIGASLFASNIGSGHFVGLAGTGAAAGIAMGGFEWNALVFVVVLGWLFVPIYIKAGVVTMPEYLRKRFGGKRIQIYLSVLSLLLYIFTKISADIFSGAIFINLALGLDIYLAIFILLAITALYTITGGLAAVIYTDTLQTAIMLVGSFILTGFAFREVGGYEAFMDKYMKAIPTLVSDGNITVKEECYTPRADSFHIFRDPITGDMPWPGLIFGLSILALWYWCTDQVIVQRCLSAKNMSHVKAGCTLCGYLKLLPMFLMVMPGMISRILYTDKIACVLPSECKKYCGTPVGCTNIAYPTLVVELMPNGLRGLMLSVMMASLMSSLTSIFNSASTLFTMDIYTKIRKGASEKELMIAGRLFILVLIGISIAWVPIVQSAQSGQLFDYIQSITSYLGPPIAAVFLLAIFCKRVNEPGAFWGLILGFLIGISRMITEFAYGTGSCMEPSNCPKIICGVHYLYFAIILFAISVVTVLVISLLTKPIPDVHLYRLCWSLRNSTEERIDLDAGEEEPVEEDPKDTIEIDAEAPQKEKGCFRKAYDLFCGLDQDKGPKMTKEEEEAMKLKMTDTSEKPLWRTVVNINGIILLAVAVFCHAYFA
The experiment in a line: 14C-AMG uptake assay, cells expressing rat SGLT1. Conditions: mean ± SD. It counts as cell-based. The text has this:
(§1) Methods for generating cell lines expressing mouse, rat, and dog SGLT1 and SGLT2 are published (Powell et al. [2013b], [2014]). Full-length coding sequence of human SGLT1 (NP_000334) and human SGLT2 (NP_003032.1) with an HA-tag at the N-terminus were cloned into the mammalian expression vector pIRESpuro2 (Clontech, Mountain View, CA). HEK293 cells (ATCC, Manassas, VA) were transfected with the pIRESpuro2 vector containing human SGLT1 or SGLT2 and bulk stable cell lines were selected in the presence of 0.5 μg/mL of puromycin.
(§2) Cell lines expressing SGLT1 or SGLT2 were plated into poly-D-lysine-coated 384-well plates, and culture overnight in cell growth medium. Cells were washed, and then incubated in uptake buffer ([…], […] KCl, […] CaCl2, […] MgCl2, […] HEPES/Tris, 1 mg/mL of bovine serum albumin, pH7.4) containing [^14C]α-methylglucopyranoside (^14C-AMG), a nonmetabolizable glucose analog specific for sodium-dependent glucose transporters (Wright and Turk [2004]). The inhibition of SGLT1 or SGLT2 was determined by measuring SGLT1/2-mediated ^14C-AMG uptake in the presence of increasing compound concentrations of LP-925219. […] Standard sigmoidal dose–response model curves were fitted, and the IC50 value was computed as the LP-925219 concentration that inhibited the ^14C-AMG uptake by 50% between baseline and maximum uptake.

A further experiment deals with T2, human SGLT2 (Homo sapiens, UniProt P31639).
T2 sequence (P31639 1-672): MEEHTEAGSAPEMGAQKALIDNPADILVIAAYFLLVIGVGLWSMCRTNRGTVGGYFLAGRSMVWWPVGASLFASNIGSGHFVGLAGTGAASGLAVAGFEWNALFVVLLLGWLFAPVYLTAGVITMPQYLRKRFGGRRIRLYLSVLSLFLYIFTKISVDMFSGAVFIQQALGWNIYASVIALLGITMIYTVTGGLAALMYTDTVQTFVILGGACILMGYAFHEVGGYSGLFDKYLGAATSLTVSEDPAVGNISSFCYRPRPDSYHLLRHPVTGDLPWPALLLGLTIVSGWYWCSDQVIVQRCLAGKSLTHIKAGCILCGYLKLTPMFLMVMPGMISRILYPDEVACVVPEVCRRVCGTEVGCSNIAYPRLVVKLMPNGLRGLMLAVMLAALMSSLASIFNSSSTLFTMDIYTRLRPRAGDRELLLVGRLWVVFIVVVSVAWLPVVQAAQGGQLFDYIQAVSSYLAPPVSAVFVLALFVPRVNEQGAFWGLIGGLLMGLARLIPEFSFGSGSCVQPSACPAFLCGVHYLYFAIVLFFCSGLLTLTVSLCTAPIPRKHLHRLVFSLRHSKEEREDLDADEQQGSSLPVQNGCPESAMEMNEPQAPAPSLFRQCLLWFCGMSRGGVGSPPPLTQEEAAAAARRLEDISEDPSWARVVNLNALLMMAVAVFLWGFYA
The experiment in a line: 14C-AMG uptake assay, HEK293 cells expressing human SGLT2. The class given is cell-based. Also noted: expressed in transfected cells. Conditions: mean ± SD.
Excerpt: as §1, §2

Molecules are shown by their SMILES.

As for `COc1ccc(Cc2cc([C@@H]3O[C@H](SC)[C@@H](O)[C@H](O)[C@H]3O)ccc2Cl)cc1` [LP-925219], the 50% inhibitory concentration (IC50) – broadly, the concentration needed to halve the response being measured – at rat SGLT1 is 36.7 ± 7.2 nM; on human SGLT2 it was 2.1 ± 0.5 nM.
